Results on two compounds are retold here after US20090192149A1, “Imidazo Compounds” (SPEEDEL EXPERIMENTA AG, priority 2006, published 2009).

The target of the test is T1, recombinant human Cyp19 enzyme (Homo sapiens, UniProt P11511).
T1 construct: purchased Becton Dickinson Biosciences, San Jose, Calif., USA
T1 sequence (P11511 1-503): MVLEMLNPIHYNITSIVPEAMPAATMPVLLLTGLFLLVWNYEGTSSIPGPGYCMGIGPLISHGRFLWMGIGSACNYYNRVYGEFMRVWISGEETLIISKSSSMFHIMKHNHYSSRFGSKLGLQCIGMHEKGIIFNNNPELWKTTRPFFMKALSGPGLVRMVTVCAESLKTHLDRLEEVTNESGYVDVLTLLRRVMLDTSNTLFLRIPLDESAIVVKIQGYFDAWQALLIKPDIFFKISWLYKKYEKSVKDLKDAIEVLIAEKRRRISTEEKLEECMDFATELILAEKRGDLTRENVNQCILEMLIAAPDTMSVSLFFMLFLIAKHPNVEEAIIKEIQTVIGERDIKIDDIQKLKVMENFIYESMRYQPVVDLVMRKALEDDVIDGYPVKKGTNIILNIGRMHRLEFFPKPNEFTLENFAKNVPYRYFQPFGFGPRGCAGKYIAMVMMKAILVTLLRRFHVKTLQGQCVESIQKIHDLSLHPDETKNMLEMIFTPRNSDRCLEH
Nature of the test: Cyp19/MFC high throughput inhibition kit (Becton Dickinson). As to conditions: recombinant human Cyp19 supersomes, MFC substrate. Type of test: biochemical. The protocol: A compound of formula (I) is to be understood as a compound having a specific configuration around the designated asymmetric carbon atom labelled “*”. If a synthesis method is used which leads to racemic compounds, the racemate resolution is carried out in accordance with conventional methods, such as via a chiral HPLC column. […] The aforementioned activity can, readily and as described below, be determined by using a commercial Cyp19 enzyme inhibition kit, preferably the Cyp19/methoxy-4-trifluoromethyl-coumarin (MFC) high throughput inhibition kit (Becton Dickinson Biosciences, San Jose, Calif., USA) as described hereafter. In the above-mentioned inhibition kit, compounds of the formula (I) show an inhibiting activity which is at least 10 times higher, but preferably 20 times higher, or more preferably 40 times higher, than the substances of the formula (I) with the opposite configuration around the asymmetric carbon atom labelled “*”. A higher inhibiting activity corresponds to a lower IC50 value.
These effects are demonstrable in in vitro assay tests using cell-free and cellular systems. […] The Cyp19/Methoxy-4-trifluoromethyl-coumarin (MFC) high throughput inhibition kit (Becton Dickinson Biosciences, San Jose, Calif., USA), for example, is designed to screen for potential inhibitors of Cyp19 catalytic activity in a 96-well format. […]

The structures appear in SMILES notation. pIC50: −log10 of the molar value.

Consider `N#Cc1ccc(C2COCc3cncn32)cc1` (single isomer, unassigned) [Example 1, 4-(5,6-Dihydro-8H-imidazo[5,1-c][1,4]oxazin-5-yl)benzonitrile], for which the pIC50 (as a rule, −log10 of the IC50, conventionally taken in molar units) is 8.32.
On to `N#Cc1ccc(C2COCc3cncn32)cc1` (centres unmarked) [antipode of 1], for which the pIC50 was 5.08.
